Measured values published in patent publication US20110039921A1 (priority 2007, published 2011).
Where two headings read alike, the source gives them in different places.

Legend:
[1] = test system: A549: the human lung adenocarcinoma cell strain; assay: cells; assay type: cell-based
Experimental: (§1) Experiment 1. Cytotoxicity Screening Assay at Cell Level of Compounds of this Invention
(§2) Tumor cells at log phase were incubated on 96-well plates at a density of 1˜1.2×10^4 cells/ml, 100 μl/well. 24 h later, treatment cells were exposed to the tested agents at different concentrations. Each tested agents had 4˜5 doses, and each dose had at least 3 parallel wells. Control cells were exposed to solvents in the same volume with treat agents. Cells were cultured at 37° C. in a cell incubator with 5% CO2 and 95% air atmosphere. After 4 days of culture, the incubation medium was removed, then 200 μl 0.2% MTT (prepared by RPMI 1640) was added to each well and the plates were incubated at 37° C. for 4 hours. The supernatant was discarded and dissolved the resulting formazen product with 200 μl DMSO in each well. The absorbance at a reference wavelength of 450 nm and a test wavelength of 570 nm was read on a microplate reader after tenderly shaking. Calculated drug inhibitory rate using the following equation and IC50, taking solvent exposure tumor cells as control cells.

[2] = test system: KB: the human oral epithelium cancer cell strain; assay: cells; assay type: cell-based
Experimental: as §1, §2

[3] = test system: A549/Taxol: the taxol-resistant substrain of A549; assay: cells; assay type: cell-based, human
Experimental: as §1, §2

[4] = test system: KB/V: the vincristine-resistant substrain of KB; assay: cells; assay type: cell-based, human; details: read-out: IC50(M) KB/V
Experimental: as §1, §2

HCT-8 = assay: MTT cytotoxicity assay, HCT-8 cells; assay type: cell-based; details: Homo sapiens, HCT-8, Table 2, read-out: IC50 (mol/L) HCT-8
Experimental: as §1, §2

[5] = test system: human mammary adenocarcinoma cell strain MCF-7; assay: MTT cytotoxicity assay, MCF-7 cells; assay type: cell-based; details: Homo sapiens, MCF7, Table 2, read-out: IC50 (mol/L) MCF-7
Experimental: as §1, §2

[6] = test system: MCF-7/D: adriamycin-resistant subline of the human mammary adenocarcinoma cell strain MCF-7; assay: MTT cytotoxicity assay, MCF-7/D cells; assay type: cell-based; details: Homo sapiens, MCF7, Table 2, read-out: IC50 (mol/L) MCF-7/D
Experimental: as §1, §2

BGC-823 = assay: MTT cytotoxicity assay, BGC-823 cells; assay type: cell-based, human; details: Homo sapiens, BGC-823, Table 2, read-out: IC50 (mol/L) BGC-823
Experimental: as §1, §2

BGC-803 = assay: MTT cytotoxicity assay, BGC-803 cells; assay type: cell-based; details: BGC803, Table 2, read-out: IC50 (mol/L) BGC-803
Experimental: as §1, §2

[7] = test system: human ovarian cancer A2780-nude mice-xenograft tumor; assay: Growth inhibition on A2780-nude mice-xenograft tumor
Source text: (§3) Genera: BALB/c (nu-nu) nude mice
(§4) After one-week accommodation, animals were given subcutaneous implantation of the human lung adenocarcinoma A549 or the human ovarian cancer A2780 or the human gastric carcinoma BGC-823 cells. Animals were grouped randomly (d0) when the tumors reached 100-300 mm^3. […] Animal weights and tumor measurements were taken every […] and recorded. At the end of the study (d30 or d35), nude mice were euthanized and weighed. After the animals were sacrificed, tumor tissue was cut and weighed. Tumor volume was determined using the following equation: […]

[8] = test system: human gastric carcinoma BGC-823 nude mice-xenograft tumor; assay: Growth inhibition on BGC-823-nude mice-xenograft tumor
Source text: as §3, §4

[9] = test system: human lung adenocarcinoma A549-nude mice-xenograft tumor; assay: Growth inhibition on A549-nude mice-xenograft tumor
Source text: as §3, §4

Lewis lung cancer = assay: Inhibitory activity on mice Lewis lung cancer
[10] = Table 1, MTT, 4 days of culture, read-out: IC50(M) A549
[11] = Table 1, MTT, 4 days of culture, read-out: IC50(M) KB
[12] = read-out: IC50(M) A549/Taxol, Table 1, MTT, 4 days of culture
[13] = Table 1, MTT, 4 days of culture

C/C=C(\C)C(=O)N[C@@H](c1ccccc1)[C@@H](O)C(=O)O[C@H]1C[C@@]2(O)[C@@H](OC(=O)c3cccc(N=[N+]=[N-])c3)[C@@H]3[C@]4(OC(C)=O)CO[C@@H]4C[C@H](O)[C@@]3(C)C(=O)[C@H](OC(C)=O)C(=C1C)C2(C)C [Example 5, 2-(3-azidobenzoyl)-cephalomannine]
IC50 [1, 10]: > 1e-06 M | IC50 [2, 11]: 5.9e-10 M | IC50 [3, 12]: > 1e-06 M | IC50 [4, 13]: 2.23e-07 M

CC(=O)O[C@H]1C(=O)[C@@]2(C)[C@H]([C@H](OC(=O)c3ccccc3)[C@]3(O)C[C@H](OC(=O)[C@H](O)[C@@H](NC(=O)c4ccccc4)c4ccccc4)C(C)=C1C3(C)C)[C@]1(OC(C)=O)CO[C@@H]1C[C@@H]2O [taxol, paclitaxel, reference compound]
IC50 ([1]; Homo sapiens, A549, 96 h, Table 1, MTT, 4 days of culture, read-out: IC50(M) A549): 2.32e-07 M | IC50 ([1]; Homo sapiens, A549, Table 2, MTT assay, read-out: IC50 (mol/L) A549): 5.2e-09 M | IC50 ([2]; Homo sapiens, KB, 96 h, Table 1, MTT, 4 days of culture, read-out: IC50(M) KB): 8.66e-09 M | IC50 ([2]; Homo sapiens, KB, Table 2, MTT assay, read-out: IC50 (mol/L) KB): 1.8e-09 M | IC50 ([3]; Homo sapiens, A549/Taxol, 96 h, read-out: IC50(M) A549/Taxol, Table 1, MTT, 4 days of culture): > 1e-06 M | IC50 ([3]; Homo sapiens, A549, Table 2, MTT assay, read-out: IC50 (mol/L) A549/T): 2.6e-08 M | IC50 ([4]; Homo sapiens, KBV, 96 h, Table 1, MTT, 4 days of culture): 9.59e-07 M | IC50 (HCT-8): 0.73 nM | IC50 [5]: 0.41 nM | IC50 [6]: 330 nM | IC50 (BGC-823): 6.3 nM | IC50 (BGC-803): 2.5 nM | RTV ([7]; 30 × 4 mg/kg i.p.): 4.4 | T/C (%) ([7]; 30 × 4 mg/kg i.p.): 45.4% | Tv x ± SD d0 ([7]; 30 × 4 mg/kg i.p., d0 (first administration)): 137.9 ± 21.0 | Tv x ± SD dn ([7]; 30 × 4 mg/kg i.p., dn: 30 days after the first administration): 604.8 ± 525.0 | Body weight (g) end ([7]; 30 × 4 mg/kg i.p., end): 23.3 g | Body weight (g) initial ([7]; 30 × 4 mg/kg i.p., initial): 22.7 g | inhibition of tumor growth, conclusion in words ([7]; A2780 nude mice-xenograft tumor, comparison with taxol): can inhibit the growth | RTV ([8]; 30 × 3 mg/kg i.p.): 0.66 | T/C (%) ([8]; 30 × 3 mg/kg i.p.): 2.41% | Tv x ± SD d0 ([8]; 30 × 3 mg/kg i.p., d0): 98.8 ± 47.35 | Tv x ± SD dn ([8]; 30 × 3 mg/kg i.p., dn 30 days after the first administration): 104.9 ± 144.9 | Body weight (g) end ([8]; 30 × 3 mg/kg i.p., end): 23.9 g | Body weight (g) initial ([8]; 30 × 3 mg/kg i.p., initial): 25.2 g | inhibition of tumor growth, conclusion in words ([8]; BGC-823 nude mice-xenograft tumor, comparison with taxol): can inhibit the growth | RTV ([9]; 30 × 3 mg/kg): 4.6 | T/C (%) ([9]; 30 × 3 mg/kg): 38.9% | Body weight (g) end ([9]; 30 × 3 mg/kg, end): 24.3 g | Tv x ± SD end ([9]; 30 × 3 mg/kg, end): 2152 ± 474 | Body weight (g) initial ([9]; 30 × 3 mg/kg, initial): 22.0 g | inhibition of tumor growth, conclusion in words ([9]; A549 nude mice-xenograft tumor, comparison with taxol): can inhibit the growth | Inhibition (%) (Lewis lung cancer; 10 × 6 mg/kg): 31.64% | Tumor weight (g) Average (Lewis lung cancer; 10 × 6 mg/kg): 1.96 g | Body weight (g) end (Lewis lung cancer; 10 × 6 mg/kg, end): 19.4 g | Body weight (g) initial (Lewis lung cancer; 10 × 6 mg/kg, initial): 19.7 g | inhibition of tumor growth, conclusion in words (Lewis lung cancer; Lewis lung cancer, comparison with taxol): can inhibit the growth

C/C=C(\C)C(=O)N[C@@H](c1ccccc1)[C@@H](O)C(=O)O[C@H]1C[C@@]2(O)[C@@H](OC(=O)c3cccc(OC)c3)[C@@H]3[C@]4(OC(C)=O)CO[C@@H]4C[C@H](O)[C@@]3(C)C(=O)[C@H](OC(C)=O)C(=C1C)C2(C)C [Example 6, 2-(3-methoxybenzoyl)-cephalomannine]
IC50 [1, 10]: 2.1e-07 M | IC50 [2, 11]: 1.44e-07 M | IC50 [3, 12]: > 1e-06 M | IC50 [4, 13]: 8.94e-07 M

C/C=C(\C)C(=O)N[C@@H](c1ccccc1)[C@@H](O)C(=O)O[C@H]1C[C@@]2(O)[C@@H](OC(=O)c3cccc(N=[N+]=[N-])c3)[C@@H]3[C@]4(OC(C)=O)CO[C@@H]4C[C@H](O)[C@@]3(C)C(=O)[C@H](OC(=O)CC)C(=C1C)C2(C)C [Example 2, 2-(3-azidobenzoyl)-10-propionyl-cephalomannine]
IC50 [1, 10]: 8.79e-08 M | IC50 [3, 12]: > 1e-06 M | IC50 [4, 13]: 1.53e-07 M

C/C=C(\C)C(=O)N[C@@H](c1ccccc1)[C@@H](O)C(=O)O[C@H]1C[C@@]2(O)[C@@H](OC(=O)c3ccccc3)[C@@H]3[C@]4(OC(C)=O)CO[C@@H]4C[C@H](O)[C@@]3(C)C(=O)[C@H](O)C(=C1C)C2(C)C [Example 1, 10-deacetyl-cephalomannine]
IC50 [1, 10]: > 1e-06 M | IC50 [3, 12]: > 1e-06 M | IC50 [4, 13]: > 1e-06 M

C/C=C(\C)C(=O)N[C@@H](c1ccccc1)[C@@H](O)C(=O)O[C@H]1C[C@@]2(O)[C@@H](OC(=O)c3ccccc3)[C@@H]3[C@]4(OC(C)=O)CO[C@@H]4C[C@H](O)[C@@]3(C)C(=O)[C@H](OC(=O)CC)C(=C1C)C2(C)C [Example 4, 10-propionyl-cephalomannine]
IC50 [1, 10]: 2.01e-07 M | IC50 [2, 11]: 9.74e-09 M | IC50 [3, 12]: 4.21e-07 M | IC50 [4, 13]: 4.85e-07 M

CC=C(C)C(=O)NC(c1ccccc1)C(O)C(=O)OC1CC2(O)C(OC(=O)c3cccc(OC)c3)C3C4(OC(C)=O)COC4CC(O)C3(C)C(=O)C(OC(=O)CC)C(=C1C)C2(C)C (stereo not drawn) [Example 3, 2-(3-methoxybenzoyl)-10-propionyl-cephalomannine]
IC50 [1, 10]: 7.04e-08 M | IC50 [3, 12]: > 1e-06 M | IC50 [4, 13]: 8.02e-07 M

C/C=C(\C)C(=O)N[C@@H](c1ccccc1)[C@@H](O)C(=O)O[C@H]1C[C@@]2(O)[C@@H](OC(=O)c3ccccc3)[C@@H]3[C@]4(OC(C)=O)CO[C@@H]4C[C@H](O)[C@@]3(C)C(=O)[C@H](OC(C)=O)C(=C1C)C2(C)C [cephalomannine, reference compound]
IC50 ([1]; Homo sapiens, A549, 96 h, read-out: IC50(M) A549): 1.33e-07 M | IC50 ([2]; Homo sapiens, KB, 96 h, read-out: IC50(M) KB): 5.18e-09 M | IC50 ([3]; Homo sapiens, A549/Taxol, 96 h, read-out: IC50(M) A549/Taxol): > 1e-06 M | IC50 ([4]; Homo sapiens, KBV, 96 h): 1e-06 M

CC=C(C)C(=O)NC(c1ccccc1)C(O)C(=O)OC1CC2(O)C(OC(=O)c3cccc(OC)c3)C3C4(OC(C)=O)COC4CC(OC(=O)CC)C3(C)C(=O)C(O)C(=C1C)C2(C)C (stereo not drawn) [Example 7, 2-(3-methoxybenzoyl)-7-propionyl-10-deacetyl-cephalomannine]
IC50 [1, 10]: 2.51e-07 M | IC50 [2, 11]: 8.78e-09 M | IC50 [3, 12]: > 1e-06 M | IC50 [4, 13]: 2.79e-07 M
